Values of other authors, collected in PMC9686985, “Chimeric Peptides Derived from Bovine Lactoferricin and Buforin II: Antifungal Activity against Reference Strains and Clinical Isolates of Candida spp” (Antibiotics, 2022).

System: E. coli
Conditions: reported; cited from earlier work
Text: LfcinB (20–25): RRWQWR is the shortest sequence derived from LfcinB with antibacterial, antifungal, and anticancer activity. In similar way, Buforin II (BFII) is an antimicrobial peptide with activity against Gram-positive and Gram-negative bacteria as well as fungi. Palindromic sequences have been designed from the 4-residue motif (RLLR) of Buforin II, and their antibacterial activity has been evaluated against Gram-negative and Gram-positive strains. The palindrome [RLLR]5: […] was reported to have an MIC of 0.7 µM against E. coli. Chimeras containing the minimum motif RRWQW ...

For “RLLRRLLRRLLRRLLRRLLR [[RLLR]5, palindrome designed from the RLLR motif of Buforin II]”, the MIC is given as 0.7 µM.
